Values after ≈ are worked out from the molar mass of the structure shown. Where two headings read alike, the source gives them in different places.
Legend:
Format in all cases: cell-based
[1] = system: Mycobacterium tuberculosis (MTB); assay: MIC by proportions method (NCCLS M24-T, 1995), 82 MTB strains; conditions: Mycobacterium tuberculosis; 82 MTB strains
[2] = system: Salmonella spp.; assay: MIC by agar dilution (NCCLS M7-A4), 288 enteropathogenic isolates, eight quinolones; conditions: for MIC: ciprofloxacin MIC ≥[…], read-out: MIC
[3] = system: Hafnia alvei; assay: as above; conditions: Hafnia alvei (n = 32)
[4] = system: Streptococcus pyogenes; assay: MIC by agar dilution (NCCLS), 411 isolates Buenos Aires 1998-99; conditions: Streptococcus pyogenes (n = 69)
[5] = system: Klebsiella pneumoniae; assay: MIC by NCCLS reference broth microdilution, 450 respiratory tract pathogens; conditions: for MIC50 / MIC90: Klebsiella pneumoniae
[6] = system: Haemophilus influenzae; assay: MIC by broth microdilution (NCCLS), dried MicroScan panels, clinical isolates 1998-1999; conditions: for MIC90: Haemophilus influenzae
[7] = system: Haemophilus influenzae; assay: MIC by two-fold serial agar dilution, Sensitivity Disk agar-N (Kitasato isolates); conditions: Haemophilus influenzae (24)
[8] = system: Staphylococcus aureus; assay: microbe, parasite or virus in culture
[9] = system: E. coli; assay: microbe, parasite or virus in culture; conditions: Escherichia coli
[10] = system: Enterococcus faecalis; assay: MIC by NCCLS broth microdilution, 1100 Japanese clinical isolates 1997-1998; conditions: for MIC50 / MIC90: Enterococcus faecalis; for MIC90: read-out: MIC90
[11] = system: Enterococcus gallinarum; assay: as above; conditions: Enterococcus gallinarum, GALLINARUM, Enterococcus gallinarum (vanC1), read-out: MIC
[12] = system: Klebsiella oxytoca; assay: as above; conditions: Klebsiella oxytoca (n=40)
[13] = system: Enterobacter cloacae; assay: as above; conditions: Enterobacter cloacae (n=40)
[14] = system: Morganella morganii; assay: as above
[15] = system: Yersinia enterocolitica; assay: MIC by agar dilution (NCCLS M7-A4), 288 enteropathogenic isolates, gemifloxacin and 15 other antimicrobials; conditions: Yersinia enterocolitica N= 22
[16] = system: Shigella spp.; assay: as above; conditions: Shigella spp. N= 21
Procedure, shortened: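 Agar dilution with ~10^4 cfu/spot inoculum; plates incubated aerobically at 35 °C for 24 h, except C. jejuni, held microaerophilically for 48 h. MIC taken as lowest antibiotic concentration with no visible growth.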

[17] = extended spectrum β-lactamase negative (n = 30)
[18] = extended spectrum β-lactamase positive (n = 20)
[19] = Haemophilus influenzae (300 isolates)
[20] = Enterococcus faecalis ciprofloxacin resistant (n=15)
[21] = Enterococcus faecalis ciprofloxacin susceptible (n=24)
[22] = 24 h, read-out: MIC (mg/L) Range

C[C@H]1COc2c(N3CCN(C)CC3)c(F)cc3c(=O)c(C(=O)O)cn1c23 [Levofloxacin, levofloxacin]
MIC90 [1]: 1 µg/mL (≈ 2.77 µM) | MIC ([2]; S. hadar (n = 2)): 1 µg/mL (≈ 2.77 µM) | MIC ([2]; S. newport (n = 1)): 1 µg/mL (≈ 2.77 µM) | MIC ([2]; S. virchow (n = 2)): 0.25 µg/mL (≈ 0.692 µM) | % Susceptible ([2]; Salmonella spp. (n = 106)): 100% | MIC50 ([2]; Salmonella spp. (n = 106)): 0.06 µg/mL (≈ 0.166 µM) | MIC90 ([2]; Salmonella spp. (n = 106)): 0.25 µg/mL (≈ 0.692 µM) | MIC Range ([2]; Salmonella spp. (n = 106)): 0.06 to 1 µg/mL | MIC ([2]; Salmonella, S. tshiongwe (n = 1)): 1 µg/mL (≈ 2.77 µM) | % Susceptible [3]: 100% | MIC50 [3]: 0.03 µg/mL (≈ 0.083 µM) | MIC90 [3]: 0.03 µg/mL (≈ 0.083 µM) | MIC Range [3]: ≤0.015 to 0.03 µg/mL | MIC Range [4]: 0.25 to 2 µg/mL | MIC Range ([5]; Klebsiella pneumoniae (n = 50)): 0.15 to 1 µg/mL | MIC50 ([5]; Klebsiella pneumoniae (n = 50)): 0.06 µg/mL (≈ 0.166 µM) | MIC90 ([5]; Klebsiella pneumoniae (n = 50)): 0.5 µg/mL (≈ 1.38 µM) | MIC50 [5, 17]: 0.06 µg/mL (≈ 0.166 µM) | MIC90 [5, 17]: 0.12 µg/mL (≈ 0.332 µM) | MIC50 [5, 18]: 0.5 µg/mL (≈ 1.38 µM) | MIC90 [5, 18]: 0.5 µg/mL (≈ 1.38 µM) | MIC Range [5, 17]: 0.015 to 0.5 µg/mL | MIC Range [5, 18]: 0.06 to 1 µg/mL | MIC50 [6, 19]: ≤ 0.015 µg/mL | MIC Range [6, 19]: ≤0.015 to 0.5 µg/mL | MIC90 [6, 19]: 0.03 µg/mL (≈ 0.083 µM) | MIC90 ([6]; β-lactamase negative (234)): 0.03 µg/mL (≈ 0.083 µM) | MIC90 ([6]; β-lactamase positive (66)): 0.03 µg/mL (≈ 0.083 µM) | MIC50 [7]: 0.031 µg/mL (≈ 0.0858 µM) | MIC90 [7]: 0.031 µg/mL (≈ 0.0858 µM) | MIC Range [7]: 0.016 to 0.031 µg/mL | MIC Range ([8]; Methicillin-resistant (38)): 0.25 to 128 µg/mL | MIC Range ([8]; Methicillin-susceptible (9)): 0.125 to 1 µg/mL | MIC50 ([8]; Staphylococcus aureus, Methicillin-resistant (38)): 8 µg/mL (≈ 22.1 µM) | MIC90 ([8]; Staphylococcus aureus, Methicillin-susceptible (9), read-out: MIC90): 1 µg/mL (≈ 2.77 µM) | MIC ([8]; Staphylococcus aureus, S. aureus KU2240, mutant type Wild (wild strain)): 0.25 µg/mL (≈ 0.692 µM) | MIC ([8]; Staphylococcus aureus, S. aureus KU2243, mutant type G+T (DNA gyrase and topoisomerase IV)): > 128 µg/mL | MIC ([8]; Staphylococcus aureus, S. aureus KU2245, mutant type G+T (DNA gyrase and topoisomerase IV)): 32 µg/mL (≈ 88.6 µM) | MIC ([8]; Staphylococcus aureus, S. aureus KU2246, mutant type T (DNA topoisomerase IV)): 1 µg/mL (≈ 2.77 µM) | MIC50 ([9]; E. coli (13 strains), quinolone-resistant, read-out: MIC50): 0.125 µg/mL (≈ 0.346 µM) | MIC90 ([9]; E. coli (13 strains), quinolone-resistant, read-out: MIC90): 1 µg/mL (≈ 2.77 µM) | MIC ([9]; E. coli KU1029, mutant type SP (spontaneous mutant in the DNA gyrase)): 0.063 µg/mL (≈ 0.174 µM) | MIC ([9]; E. coli KU1030, mutant type SP): 0.125 µg/mL (≈ 0.346 µM) | MIC ([9]; E. coli KU1031, mutant type SP): 0.063 µg/mL (≈ 0.174 µM) | MIC ([9]; E. coli KU1032, mutant type SP): 0.25 µg/mL (≈ 0.692 µM) | MIC ([9]; E. coli KU1033, mutant type SP): 0.063 µg/mL (≈ 0.174 µM) | MIC ([9]; E. coli KU1034, mutant type GA (DNA gyrase A)): 1 µg/mL (≈ 2.77 µM) | MIC ([9]; E. coli KU1035, mutant type GA (DNA gyrase A)): 1 µg/mL (≈ 2.77 µM) | MIC ([9]; E. coli KU1036, mutant type GB (DNA gyrase B)): 0.125 µg/mL (≈ 0.346 µM) | MIC ([9]; E. coli KU1038, mutant type SP): 0.125 µg/mL (≈ 0.346 µM) | MIC ([9]; E. coli KU1039, mutant type SP): 0.25 µg/mL (≈ 0.692 µM) | MIC ([9]; E. coli KU1040, mutant type SP): 0.031 µg/mL (≈ 0.0858 µM) | MIC ([9]; E. coli KU1041, mutant type SP): 0.5 µg/mL (≈ 1.38 µM) | MIC ([9]; E. coli KU1042, mutant type SP): 0.063 µg/mL (≈ 0.174 µM) | MIC Range [10, 20]: 2 to 32 µg/mL | MIC Range [10, 21]: 1 to 2 µg/mL | MIC50 [10, 20]: 16 µg/mL (≈ 44.3 µM) | MIC90 [10, 20]: 32 µg/mL (≈ 88.6 µM) | MIC50 [10, 21]: 1 µg/mL (≈ 2.77 µM) | MIC90 [10, 21]: 2 µg/mL (≈ 5.53 µM) | MIC ([11]; strain TMS1): 1 µg/mL (≈ 2.77 µM) | MIC ([11]; strain TMS2): 2 µg/mL (≈ 5.53 µM) | MIC ([11]; strain TMS3): 1 µg/mL (≈ 2.77 µM) | MIC ([11]; strain TMS4): 0.5 µg/mL (≈ 1.38 µM) | MIC50 [12]: 0.063 µg/mL (≈ 0.174 µM) | MIC90 [12]: 4 µg/mL (≈ 11.1 µM) | MIC Range [12]: 0.016 to 16 µg/mL | MIC50 [13]: 0.032 µg/mL (≈ 0.0886 µM) | MIC90 [13]: 0.5 µg/mL (≈ 1.38 µM) | MIC Range [13]: 0.016 to 1 µg/mL | MIC90 ([14]; Morganella morganii): 0.125 µg/mL (≈ 0.346 µM) | MIC Range ([14]; Morganella morganii (n=40)): 0.016 to 8 µg/mL | MIC50 ([14]; Morganella morganii (n=40), read-out: MIC50): 0.032 µg/mL (≈ 0.0886 µM) | MIC [15, 22]: 0.03 to 0.5 mg/L (≈ 0.083 to 1.38 µM) | MIC ([15]; read-out: MIC (mg/L) 50%): 0.06 mg/L (≈ 0.166 µM) | MIC ([15]; read-out: MIC (mg/L) 90%): 0.06 mg/L (≈ 0.166 µM) | MIC [16, 22]: 0.015 to 0.03 mg/L (≈ 0.0415 to 0.083 µM) | MIC ([16]; read-out: MIC (mg/L) 50%): 0.03 mg/L (≈ 0.083 µM) | MIC ([16]; read-out: MIC (mg/L) 90%): 0.03 mg/L (≈ 0.083 µM)
